What was measured:
Assay type in all cases: biochemical
[1] = biological target: T1, amylase derived from human saliva (human S type α-amylase) (Homo sapiens, UniProt P0DUB6); test: Patterns of action (hydrolyzed product by HPLC), S type α-amylase; details: 0.5 mM substrate, 37° C., 20 minutes
T1 sequence (P0DUB6 16-511): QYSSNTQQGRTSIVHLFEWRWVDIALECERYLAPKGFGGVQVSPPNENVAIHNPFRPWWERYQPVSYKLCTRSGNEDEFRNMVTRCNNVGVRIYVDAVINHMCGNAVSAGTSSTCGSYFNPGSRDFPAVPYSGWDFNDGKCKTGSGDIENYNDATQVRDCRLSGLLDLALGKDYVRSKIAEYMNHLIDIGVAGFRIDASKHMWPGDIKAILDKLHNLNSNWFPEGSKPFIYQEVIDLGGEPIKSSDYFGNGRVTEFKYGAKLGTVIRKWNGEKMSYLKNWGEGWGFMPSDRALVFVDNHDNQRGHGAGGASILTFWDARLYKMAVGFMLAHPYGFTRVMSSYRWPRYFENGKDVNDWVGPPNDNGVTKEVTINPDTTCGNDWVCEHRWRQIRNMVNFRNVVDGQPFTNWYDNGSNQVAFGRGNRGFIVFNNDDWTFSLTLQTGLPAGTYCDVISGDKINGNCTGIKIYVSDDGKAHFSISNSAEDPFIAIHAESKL
Description: (§1) Commercially available human P type and S type α-amylase solutions having a concentration of ca. 500 IU/l were prepared in the same manner as in the step (3) of Example 5.
To 1.0 ml of the substrate solution was added 100 μl of the α-amylase solution prepared in the paragraph (iii) of the aforementioned hydrolysis rate, and the mixture, after stirred sufficiently, was subjected to reaction at 37° C. for 20 minutes. The hydrolyzed product was determined quantitatively by the high performance liquid chromatography of the reaction mixture.
S: amylase derived from human saliva.

[2] = biological target: T2, amylase derived from human pancreatic juice (human P type α-amylase) (Homo sapiens, UniProt P04746); test: Hydrolysis rate, P type α-amylase; details: relative to hydrolysis rate of 3 mM G5CNP defined as 10, substrate 7-9 times the Km
T2 sequence (P04746 16-511): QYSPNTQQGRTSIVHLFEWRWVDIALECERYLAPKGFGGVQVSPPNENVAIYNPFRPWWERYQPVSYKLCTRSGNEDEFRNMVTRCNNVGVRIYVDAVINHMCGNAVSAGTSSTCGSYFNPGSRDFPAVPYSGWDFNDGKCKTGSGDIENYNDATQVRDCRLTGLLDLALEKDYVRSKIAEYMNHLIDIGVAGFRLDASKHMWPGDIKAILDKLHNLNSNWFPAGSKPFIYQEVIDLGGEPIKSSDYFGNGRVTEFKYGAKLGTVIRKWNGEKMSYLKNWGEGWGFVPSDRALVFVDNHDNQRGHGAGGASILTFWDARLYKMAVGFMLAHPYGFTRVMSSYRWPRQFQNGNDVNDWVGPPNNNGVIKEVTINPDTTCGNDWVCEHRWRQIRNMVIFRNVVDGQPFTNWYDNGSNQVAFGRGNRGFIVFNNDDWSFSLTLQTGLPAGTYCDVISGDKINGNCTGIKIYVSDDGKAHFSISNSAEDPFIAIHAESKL
Description: The coupled enzyme solution was prepared in the same manner as in the step (2) of Example 5.
as §1
With 250 μl of the α-amylase solution prepared in (iii) was mixed 1.0 ml of the coupled enzyme. The mixture was heated at 37° C. for 1 minute, and 2.0 ml of the substrate solution was added with stirring to the mixture. The variation of absorbance at 400 nm was measured for 2 minutes after heating the mixture at 37° C. for 2 minutes. The hydrolysis rate of each substrate, namely the variable absorbance per unit time was expressed with the relative values to the hydrolysis rate of 3 mM G5CNP (the reference substrate) which is defined as 10.
P: amylase derived from human pancreatic juice, […]

[3] = system: human α-amylase (P:S=1:1); test: α-Amylase hydrolysis (increase in absorbance at 400 nm with coupled enzymes); details: for Increase in absorbance for 2 minutes (corrected by the 0 IU/l of α-amylase activity): substrate solution 3.00 mM, 400 nm, 37° C., pH 7.0; for hydrolysis by α-amylase (in words): as understood from Tables 1 and 2
Description: Coupled enzyme solution was prepared by dissolving a commercially available α-glucosidase derived from yeast and a commercially available β-glucosidase derived from almond in a 50 mM phosphate buffer (pH=7.0) containing 40 mM NaCl and 2 mM MgCl2 to a concentration of 117 units/ml and 13 units/ml, respectively. As the commercially available α- and β-glucosidases, those available from Toyobo Co., Ltd. were used.
Standard α-amylase solutions were prepared by dissolving a commercially available human α-amylase (P:S=1:1) in purified water to a concentration of 0, 148, 284, 401 and 525 IU/l, respectively. As the commercially available human α-amylase, Calibzyme.AMY manufactured by International Reagents Corp. was employed. As for the activity of α-amylase, an amount of the enzyme which decomposes 1μ mol of (a commercially available) 2-chloro-4-nitrophenyl β-D-maltopentaoside at 37° C. for one minute was defined as 1 international unit (IU).
The substrate solution (a) was prepared by dissolving 2-chloro-4-nitorphenyl 6^5 -azido-6^5 -deoxy-β-D-maltopentaoside (referred to hereinafter as the substrate of the present invention) obtained in Example 3 in a 50 mM phosphate buffer (pH=7.0) containing 40 mM NaCl and 2 mM MgCl2 to a concentration of 3.00 mM.
The substrate solution (b) was prepared by dissolving 2-chloro-4-nitrophenyl 6^3 -azido-6^3 -deoxy-β-D-maltotrioside (referred to hereinafter as the reference substrate) obtained in the step (1) in a 50 mM phosphate buffer (pH=7.0) containing 40 mM NaCl and 2 mM MgCl2 to a concentration of 3.00 mM.
A coupled enzyme solution was prepared in the same manner as in the step (2) of Example 5.
α-amylase solutions were prepared in the same manner as in the step (3) of Example 5 by dissolving a commercially available human α-amylase (P:S=1:1) in purified water to a concentration of 0, 250 and 500 IU/l, respectively.
The coupled enzyme solution in an amount of 1.0 ml was added with stirring to 250 μl of the α-amylase solution, and the mixture was heated at 37° C. for one minute. Each of the substrate solution in an amount of 2.0 ml was added with stirring to the mixture, and the mixture was heated at 37° C. for 2 minutes before measuring the variation of the absorbance at 400 nm for 2 minutes.
2-chloro-4-nitrophenyl 5^5 -eno-4^5 -O-mesyl-β-D-maltopentaoside (referred to hereinafter as substrate of the present invention) obtained in Example 1 was dissolved in a 50 mM phosphate buffer (pH=7.0) containing 40 mM NaCl and 2 mM MgCl2 to a concentration of 3.00 mM.
2-chloro-4-nitrophenyl 5^3 -eno-4^3 -O-mesyl-β-D-maltotrioside(referred to hereinafter as reference substrate) obtained in the previous step (1) was dissolved in a 50 mM phosphate buffer (pH=7.0) containing 40 mM NaCl an 2 mM MgCl2 to a concentration of 3.00 mM.
α-amylase solutions were prepared in the same manner as in the step (5) of Example 7.
The variations of absorbance were measured in the same manner as in the step (6) of Example 7.

Row | Patterns of action, hydrolyzed product G2CNP [1] [mol %] | Patterns of action, hydrolyzed product G3CNP [1] [mol %] | Patterns of action, hydrolyzed product G4CNP [1] [mol %] | Patterns of action, hydrolyzed product GCNP [1] [mol %] | Hydrolysis rate [2] | Increase in absorbance for 2 minutes (corrected by the 0 IU/l of α-amylase activity) ([3]; Table 1, α-amylase activity 250 IU/l) | Increase in absorbance for 2 minutes (corrected by the 0 IU/l of α-amylase activity) ([3]; Table 1, α-amylase activity 500 IU/l) | hydrolysis by α-amylase (in words) [3] | Increase in absorbance for 2 minutes (corrected by the 0 IU/l of α-amylase activity) ([3]; Table 2, α-amylase activity 250 IU/l) | Increase in absorbance for 2 minutes (corrected by the 0 IU/l of α-amylase activity) ([3]; Table 2, α-amylase activity 500 IU/l) | SMILES
1 | 100 | 0 | 0 | 0 | 10 | 0.058 | 0.118 | hydrolyzed satisfactorily |  |  | [N-]=[N+]=NC[C@H]1O[C@H](O[C@H]2[C@H](O)[C@@H](O)[C@@H](O[C@H]3[C@H](O)[C@@H](O)[C@@H](O[C@H]4[C@H](O)[C@@H](O)[C@@H](O[C@H]5[C@H](O)[C@@H](O)[C@H](Oc6ccc([N+](=O)[O-])cc6Cl)O[C@@H]5CO)O[C@@H]4CO)O[C@@H]3CO)O[C@@H]2CO)[C@H](O)[C@@H](O)[C@@H]1O [ADG5CNP, 2-chloro-4-nitrophenyl 6^5-azido-6^5-deoxy-β-D-maltopentaoside]
2 | 97 | 0 | 0 | 3 | 10 |  |  | hydrolyzed extremely smoothly | 0.057 | 0.116 | C=C1O[C@H](O[C@H]2[C@H](O)[C@@H](O)[C@@H](O[C@H]3[C@H](O)[C@@H](O)[C@@H](O[C@H]4[C@H](O)[C@@H](O)[C@@H](O[C@H]5[C@H](O)[C@@H](O)[C@H](Oc6ccc([N+](=O)[O-])cc6Cl)O[C@@H]5CO)O[C@@H]4CO)O[C@@H]3CO)O[C@@H]2CO)[C@H](O)[C@@H](O)[C@@H]1OS(C)(=O)=O [EMG5CNP, 2-chloro-4-nitrophenyl 5^5-eno-4^5 -O-mesyl-β-D-maltopentaoside]

Reference: US5302514A, “Maltooligoside derivative, reagent for determining α-amylase activity containing the same as effective ingredient and a process for determining the α-amylase activity using same” (Kikkoman Corporation, priority 1991, dated 1994)
